Laboratory results reported in patent US10413545B2, “Imidazolin-5-one derivative useful as FASN inhibitors for the treatment of cancer” (Janssen Pharmaceutica NV, priority 2013, dated 2019).
Read-outs that look alike come from different tables or passages of the source.

Key:
A2780 ovarian cells = assay: A2780 Ovarian Cell Proliferation Assay in Lipid Reduced Medium, with and without Palmitate (MTT); assay type: cell-based; conditions: 10% lipid-reduced serum, 96 h; for IC50: Homo sapiens
[1] = test system: LNCaP_Vancouver prostate cells; assay: In Vitro LNCaP Vancouver Prostate Cell Proliferation Assay in Lipid Reduced Medium; assay type: cell-based; conditions: 10% lipid reduced serum, 96 h, ATP-glow luminescence; for IC50: Prostate cell, read-out: pIC50 LNCaP_Vancouver prostate cell (converted)
[2] = test system: PC-3M-Luc-C6 prostate cells; assay: In Vitro PC-3M-Luc-C6 Prostate Cell Proliferation Assay in Lipid Reduced Medium; assay type: cell-based; conditions: 10% lipid reduced serum, 96 h, ATP-glow luminescence; for IC50: Prostate cell, read-out: pIC50 PC-3M-Luc-C6 prostate cell (converted)
[3] = biological target: FASN Keto-reductase Domain (hFASN enzyme, full length) (Homo sapiens (Human), UniProt P49327); assay: Fatty Acid Synthase Keto-Reductase Domain (FASN KR) Inhibition; assay type: biochemical; conditions: NADPH oxidation at 340 nm, ethyl acetoacetate substrate, mean if tested more than once; for IC50: read-out: FASN Keto-reductase Domain pIC50 (converted)
Method: After 20 minutes incubation at room temperature the plate was measured again (T2).
The decrease in absorbance was calculated as (Absorbance before incubation T1)−(Absorbance following incubation T2).
(§1) Raw data generated by the instrument were normalized to % Controlmin values, which were calculated as: % Controlmin=100*(x−mLC)/(mHC−mLC)
where mLC and mHC were the means of the low control wells and high control wells on the plate, after manual exclusion of outliers. A plot of Controlmin versus test compound concentration was fitted to a 4-parameter logistic curve using a non-linear least squares regression method.

[4] = biological target: Human FASN (hFASN enzyme, full length) (Homo sapiens (Human), UniProt P49327); assay: Fatty Acid Synthase (FASN) Inhibition Scintillation Proximity Assay; assay type: biochemical; conditions: hFASN SPA, 3H-acetyl-CoA/malonyl-CoA; mean if tested more than once; ~ = standard error of pIC50 >0.5
Method: In this assay, inhibition of FASN activity is measured using ^3H-acetyl-CoA and malonyl-CoA as substrates. ^3H-Acetyl CoA is converted to ^3H-palmitate through a series of reactions by the FASN protein, which contains 7 functional domains and carries out 7 enzymatic reactions to ultimately produce ^3H-palmitate. The assay principle is based upon the fact that ^3H-acetyl-CoA is hydrophilic and the end product, ^3H-palmitate is hydrophobic.
0.9 μL test compound (at concentrations of 30 μM, 10 μM, 3 μM, 1 μM, 0.30 μM, 0.10 μM, 0.03 μM and 0.01 μM)/DMSO and 10 μL hFASN enzyme (full length, 300 ng, purified in house) or 10 μL assay buffer was added to the wells. […] The reaction was stopped by adding 20 μL Streptavidin coupled imaging beads (25 mg/ml). After incubation for 30 minutes at room temperature in the dark, the 384 well plate was centrifuged at 1500 rpm for 3 minutes and was measured after at least 24 hrs by the LEADseeker™, measuring emission using a 610±20 nm pass filter.
as §1
where mLC and mHC were the means of the low control wells and high control wells on the plate, after manual exclusion of outliers. […]

[5] = no palmitate, read-out: pIC50 Without Palmitate (converted)
[6] = 25 μM palmitate added (control), read-out: pIC50 With Palmitate (converted)

Sequence of FASN Keto-reductase Domain (hFASN enzyme, full length) (P49327 whole entry, the tested form may be a part): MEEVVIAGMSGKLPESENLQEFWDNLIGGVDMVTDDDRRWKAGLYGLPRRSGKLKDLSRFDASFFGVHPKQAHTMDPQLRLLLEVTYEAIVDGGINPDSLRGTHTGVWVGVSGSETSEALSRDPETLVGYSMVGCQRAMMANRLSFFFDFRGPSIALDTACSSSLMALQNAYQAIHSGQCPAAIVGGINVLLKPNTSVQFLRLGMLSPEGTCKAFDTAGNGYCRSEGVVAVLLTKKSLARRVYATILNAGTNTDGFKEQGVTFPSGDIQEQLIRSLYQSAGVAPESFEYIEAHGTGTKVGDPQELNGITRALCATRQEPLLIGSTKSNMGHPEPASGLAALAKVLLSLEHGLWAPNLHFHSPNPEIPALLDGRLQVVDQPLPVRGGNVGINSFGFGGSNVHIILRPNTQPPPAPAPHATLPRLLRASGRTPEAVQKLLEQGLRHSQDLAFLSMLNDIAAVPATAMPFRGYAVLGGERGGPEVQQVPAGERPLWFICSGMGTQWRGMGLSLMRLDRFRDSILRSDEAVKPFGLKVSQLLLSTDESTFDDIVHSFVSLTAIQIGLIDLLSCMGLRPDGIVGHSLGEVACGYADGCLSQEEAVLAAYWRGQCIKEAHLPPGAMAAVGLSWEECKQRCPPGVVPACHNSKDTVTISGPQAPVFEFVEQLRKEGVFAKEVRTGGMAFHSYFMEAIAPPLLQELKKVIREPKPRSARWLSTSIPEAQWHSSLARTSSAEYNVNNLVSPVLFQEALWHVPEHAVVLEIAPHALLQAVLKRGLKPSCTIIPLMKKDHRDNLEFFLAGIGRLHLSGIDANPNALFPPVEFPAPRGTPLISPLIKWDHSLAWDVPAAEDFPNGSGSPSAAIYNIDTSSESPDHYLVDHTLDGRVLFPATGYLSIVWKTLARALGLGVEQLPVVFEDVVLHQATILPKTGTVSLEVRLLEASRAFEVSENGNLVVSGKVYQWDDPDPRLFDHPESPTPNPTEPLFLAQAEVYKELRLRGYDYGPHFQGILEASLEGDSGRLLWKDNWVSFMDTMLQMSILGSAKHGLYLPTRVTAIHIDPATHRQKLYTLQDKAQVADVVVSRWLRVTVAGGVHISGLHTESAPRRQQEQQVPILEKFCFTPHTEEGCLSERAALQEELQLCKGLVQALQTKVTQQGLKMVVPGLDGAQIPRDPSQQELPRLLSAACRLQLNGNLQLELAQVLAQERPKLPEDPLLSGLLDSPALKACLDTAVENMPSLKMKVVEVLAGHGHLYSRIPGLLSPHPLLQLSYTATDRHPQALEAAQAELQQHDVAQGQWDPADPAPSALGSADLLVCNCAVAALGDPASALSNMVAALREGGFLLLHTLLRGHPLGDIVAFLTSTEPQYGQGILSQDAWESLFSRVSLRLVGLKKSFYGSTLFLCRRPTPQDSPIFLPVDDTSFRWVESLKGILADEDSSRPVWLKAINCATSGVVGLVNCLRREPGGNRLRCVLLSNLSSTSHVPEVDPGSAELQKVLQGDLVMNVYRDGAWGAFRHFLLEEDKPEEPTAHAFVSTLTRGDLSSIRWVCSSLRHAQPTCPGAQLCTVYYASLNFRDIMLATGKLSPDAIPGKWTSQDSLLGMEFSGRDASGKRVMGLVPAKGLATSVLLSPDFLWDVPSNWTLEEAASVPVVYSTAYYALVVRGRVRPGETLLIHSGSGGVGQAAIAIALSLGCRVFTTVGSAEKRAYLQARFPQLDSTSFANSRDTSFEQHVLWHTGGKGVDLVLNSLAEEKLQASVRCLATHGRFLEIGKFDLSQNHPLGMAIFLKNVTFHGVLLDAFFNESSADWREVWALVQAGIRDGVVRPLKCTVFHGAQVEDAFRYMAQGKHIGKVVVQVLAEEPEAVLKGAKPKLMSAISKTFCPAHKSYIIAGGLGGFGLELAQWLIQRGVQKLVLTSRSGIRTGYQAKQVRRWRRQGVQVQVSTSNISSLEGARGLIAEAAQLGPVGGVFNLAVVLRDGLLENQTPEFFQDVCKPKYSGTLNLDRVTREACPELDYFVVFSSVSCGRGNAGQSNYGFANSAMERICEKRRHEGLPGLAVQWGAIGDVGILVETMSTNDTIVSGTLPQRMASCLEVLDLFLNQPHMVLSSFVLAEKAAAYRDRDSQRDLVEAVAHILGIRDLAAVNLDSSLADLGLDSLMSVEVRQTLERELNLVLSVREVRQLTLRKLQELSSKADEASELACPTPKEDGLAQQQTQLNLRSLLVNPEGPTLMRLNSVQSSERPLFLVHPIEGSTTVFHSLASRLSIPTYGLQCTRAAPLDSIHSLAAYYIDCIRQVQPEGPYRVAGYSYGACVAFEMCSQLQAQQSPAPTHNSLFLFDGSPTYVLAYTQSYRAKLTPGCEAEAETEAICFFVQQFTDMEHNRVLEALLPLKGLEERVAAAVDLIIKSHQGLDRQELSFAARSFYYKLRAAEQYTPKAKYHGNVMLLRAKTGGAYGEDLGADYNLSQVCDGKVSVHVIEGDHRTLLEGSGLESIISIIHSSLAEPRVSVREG
Sequence of Human FASN (hFASN enzyme, full length) (P49327 whole entry, the tested form may be a part): as above

Compound | IC50 [1] [nM] | IC50 [2] [nM] | IC50 [3] [nM] | IC50 (A2780 ovarian cells; [5]) [nM] | also measured
1-((1-(cyclopropanecarbonyl)azetidin-3-yl)methyl)-2-(2-fluoro-4-(1-methyl-1H-indazol-5-yl)phenyl)-4,4-dimethyl-1H-1-imidazol-5(4H)-one [Compound 69] | – | – | – | – | pIC50 With Palmitate (A2780 ovarian cells; 25 μM palmitate added (control)): <5; pIC50 Without Palmitate (A2780 ovarian cells; no palmitate): 7.19; pIC50 LNCaP_Vancouver prostate cell [1]: 6.87; pIC50 PC-3M-Luc-C6 prostate cell [2]: 7.04; FASN Keto-reductase Domain pIC50 [3]: 6.67; Human FASN pIC50 [4]: 6.96
CC1(C)N=C(c2ccc(-c3n[nH]c4ccccc34)cc2F)N(C[C@@H]2CCN(C(=O)C3CC3)C2)C1=O [Compound 57, (R)-1-((1-(cyclopropanecarbonyl)pyrrolidin-3-yl)methyl)-2-(2-fluoro-4-(1H-indazol-3-yl)phenyl)-4,4-dimethyl-1H-imidazol-5(4H)-one] | 1780 | 646 | 2750 | – | –
CC1(C)N=C(c2ccc(-c3c[nH]c4ccccc34)cc2F)N(C[C@@H]2CCN(C(=O)C3CC3)C2)C1=O [Compound 63, (R)-1-((1-(cyclopropanecarbonyl)pyrrolidin-3-yl)methyl)-2-(2-fluoro-4-(1H-indol-3-yl)phenyl)-4,4-dimethyl-1H-imidazol-5(4H)-one] | 525 | – | 186 | – | –
CC1(C)N=C(c2ccc(-c3ccc4cc(F)ccc4c3)cc2F)N(C[C@@H]2CCN(C(=O)C3CC3)C2)C1=O [Compound 66] | 692 | 589 | 52.5 | ~427 | –

More lines, main results first:

IC50 [1] [nM] | IC50 [2] [nM] | IC50 [3] [nM] | IC50 (A2780 ovarian cells; [5]) [nM] | Compound | also measured
204 | – | 47.9 | 17.4 | CC1(C)N=C(c2ccc(-c3ccc4cnccc4c3)cc2F)N(C[C@@H]2CCN(C(=O)C3CC3)C2)C1=O [Compound 68, (R)-1-((1-(cyclopropanecarbonyl)pyrrolidin-3-yl)methyl)-2-(2-fluoro-4-(isoquinolin-6-yl)phenyl)-4,4-dimethyl-1H-imidazol-5(4H)-one] | –
– | – | – | ~9330 | CC1(C)N=C(c2ccc(-c3nc4ccccc4[nH]3)cc2)N(C[C@@H]2CCN(C(=O)C3CC3)C2)C1=O [Compound 71, (R)-2-(4-(1H-benzo[d]imidazol-2-yl)phenyl)-1-((1-(cyclopropanecarbonyl)pyrrolidin-3-yl)methyl)-4,4-dimethyl-1H-imidazol-5(4H)-one] | IC50 (A2780 ovarian cells; [6]): > 10000 nM; Human FASN pIC50 [4]: 5.23
178 | ~70.8 | – | 11.7 | Cc1cc(-c2ccc(-c3cnn(C)c3)cc2)ccc1C1=NC(C)(C)C(=O)N1CC1CN(C(=O)C2(C)CC2)C1 [Compound 87, 4,4-dimethyl-2-(3-methyl-4′-(1-methyl-1H-pyrazol-4-yl)-[1,1′-biphenyl]-4-yl)-1-((1-(1-methylcyclopropanecarbonyl)azetidin-3-yl)methyl)-1H-imidazol-5(4H)-one] | IC50 (A2780 ovarian cells; [6]): ~10000 nM
